Measurements taken from patent US10617736B2, “Method for modulating insulin-independent glucose transport using teneurin C-terminal associated peptide (TCAP)” (priority 2014, dated 2020).
Ends that are not written are not given here.

What was measured:
[1] = tested on: skeletal mouse muscle fibers; test: FITC-TCAP-1 binding assay on skeletal mouse muscle sections; details: fluorescence, co-staining with β-DG
Procedure: (§1) The [K8]-TCAP-1 peptide was labeled with fluorescein isothiocyanate (FITC) according to the EZ-label TITC Protein labeling kit (Pierce Biotechnology, Rockford Ill.). FITC was dissolved in dimethylformamide, mixed with the [K8]-TCAP-1 at a 24:1 excess molar ratio and incubated for 2 h at RT in the dark to allow for the conjugation of the primary amine of the lysine group. A dextran column was used to remove the unconjugated FITC and the absorbance of each fraction was measured at 280 nm to determine the elution point of the conjugated peptide in phosphate buffered saline (PBS; 0.1M phosphate, 0.15 M NaCl, pH7.2). The four fractions with the highest protein absorbance readings were combined and sterilize-filtered using an Acrodisc Syringe 0.2 μm Supor low protein binding filter (Pall Life Sciences, Ann Arbor, Mich.). […] The amount of the FITC required to be injected as a control was determined by applying different PBS-diluted preparations of FITC on a nitrocelluose membrate. The level of fluorescence was directly compared to that of a spot of the FITC-[K8]-TCAP-1 conjugate to be administered and that dilution was used for the administration after sterilize-filtration indicated above. Fluorescence was measured using an EP Chemi II Darkroom system (UVP, Upland, Calif.) with the sequential integration function of LabWorks Image acquisition and analysis software. […]

[2] = target: T1, latrophilin-1 (Mus musculus, UniProt Q80TR1); test: Co-localization of FITC-TCAP-1 with latrophilin-1 in Hypo E-38 cells; type: binding
T1 construct: only latrophilin 1 and 3 could be detected in this cell line or in the intact mouse brain; endogenous in cells; host or cells: Hypo E-38 (mHypoE-38) immortalized embryonic mouse hypothalamic neurons
T1 sequence (Q80TR1 29-1466): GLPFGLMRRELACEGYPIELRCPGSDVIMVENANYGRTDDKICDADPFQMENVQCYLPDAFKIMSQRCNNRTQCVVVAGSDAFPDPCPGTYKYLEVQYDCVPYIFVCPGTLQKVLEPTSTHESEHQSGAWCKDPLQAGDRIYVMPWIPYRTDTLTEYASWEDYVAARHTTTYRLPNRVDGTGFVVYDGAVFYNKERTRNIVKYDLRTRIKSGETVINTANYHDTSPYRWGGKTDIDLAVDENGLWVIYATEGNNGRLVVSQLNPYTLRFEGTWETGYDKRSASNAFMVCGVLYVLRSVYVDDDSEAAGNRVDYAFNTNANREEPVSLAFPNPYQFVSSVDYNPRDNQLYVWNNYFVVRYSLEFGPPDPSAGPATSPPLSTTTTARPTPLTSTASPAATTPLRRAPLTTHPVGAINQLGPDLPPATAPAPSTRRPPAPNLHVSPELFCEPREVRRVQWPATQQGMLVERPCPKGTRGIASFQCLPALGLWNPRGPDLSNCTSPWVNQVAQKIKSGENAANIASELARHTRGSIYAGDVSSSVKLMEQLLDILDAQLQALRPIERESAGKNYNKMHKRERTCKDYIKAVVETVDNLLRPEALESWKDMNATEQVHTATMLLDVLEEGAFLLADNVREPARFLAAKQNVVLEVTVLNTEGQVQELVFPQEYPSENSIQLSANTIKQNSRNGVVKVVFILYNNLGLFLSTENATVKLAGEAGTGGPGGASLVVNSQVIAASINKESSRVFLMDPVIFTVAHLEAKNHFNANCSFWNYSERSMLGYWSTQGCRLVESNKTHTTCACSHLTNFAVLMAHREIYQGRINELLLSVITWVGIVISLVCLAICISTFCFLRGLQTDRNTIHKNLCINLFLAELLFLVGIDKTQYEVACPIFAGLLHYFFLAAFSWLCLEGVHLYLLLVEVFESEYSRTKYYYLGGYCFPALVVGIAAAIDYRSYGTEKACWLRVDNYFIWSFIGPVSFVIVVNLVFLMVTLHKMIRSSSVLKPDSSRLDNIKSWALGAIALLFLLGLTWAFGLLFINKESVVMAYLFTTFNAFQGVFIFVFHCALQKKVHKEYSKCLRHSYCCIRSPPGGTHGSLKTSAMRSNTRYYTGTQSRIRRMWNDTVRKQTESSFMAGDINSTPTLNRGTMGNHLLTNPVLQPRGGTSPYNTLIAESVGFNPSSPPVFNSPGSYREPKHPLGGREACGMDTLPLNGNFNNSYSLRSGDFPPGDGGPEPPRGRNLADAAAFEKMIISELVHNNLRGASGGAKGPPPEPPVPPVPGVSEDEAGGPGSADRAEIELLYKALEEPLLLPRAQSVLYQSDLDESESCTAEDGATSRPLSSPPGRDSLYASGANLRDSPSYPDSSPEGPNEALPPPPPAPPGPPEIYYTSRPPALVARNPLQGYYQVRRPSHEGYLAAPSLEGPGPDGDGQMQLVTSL
Procedure: as §1

[3] = tested on: mHypoE-38 neurons; test: 3H-2-deoxyglucose uptake in mHypoE-38 hypothalamic neurons; type: cell-based, mouse; details: Hypo-E38 cells, potassium-free media (FIG. 11F, G)
[4] = tested on: C2C12 myocytes; test: 3H-2-deoxyglucose uptake in C2C12 myocytes; type: cell-based, mouse; details: 100 nM
Procedure: The effect of TCAP-1 on glucose uptake in muscle cells was examined in a C2C12 mouse myocyte cell line. C2C12 myocytes were cultured in Dulbecco's Modified Eagle Medium (DMEM) containing 4500 mg/L D-glucose, L-glutamine, and 25 mM HEPES buffer, without sodium pyruvate or phenol red (Gibco, Cat. No. 21063029), supplemented with 20% heat-inactivated fetal bovine serum (FBS), 100 U/ml penicillin and 100 μg/ml streptomycin. Cells were maintained at 80% confluency at 37° C. in a humidified CO2 incubator. To initiate differentiation, myocytes were further cultured in DMEM supplemented with 10% heat-inactivated horse serum (HS), transferrin, 100 U/ml penicillin and 100 μg/ml streptomycin. Myocytes were allowed to differentiate into multi-nucleated myotubes for 5 days before experimentation. 24 hours prior to experimentation, medium was changed. At day 5 of differentiation, cells were deprived of serum and incubated in Minimal Essential Medium containing 1000 mg/L D-glucose, L-glutamine, without nucleosides (Gibco, Cat. No. 12561049) for 5 hours at 37° C. prior to incubation with insulin, TCAP-1, or saline. Cells were washed twice in glucose-free HEPES-buffered solution (HBS), containing 140 mM NaCl, 20 mM HEPES, 5 mM KCl, 2.5 mM MgSO4 and 1 mM CaCl2, followed by determinations of transport of 3H-2-deoxyglucose for 10 minutes at 0.5 μCi/ml at room temperature. Uptake of 3H-2-deoxyglucose was stopped immediately after 10 minutes with three washes of ice-cold 0.9% NaCl solution. Parallel experiments with 5 μM of cytochalasin B were done to ensure that glucose uptake was of transporter-inhibitable transport The cells were digested with 1 ml of 0.05 N NaOH. Cell lysates were used for determination of radioactivity by a beta liquid scintillation counter. Experiments were repeated three times with 3 wells per condition per replication. […] Cell lysates were used for determination of radioactivity by a beta liquid scintillation counter. […]

[5] = tested on: mHypoE-38 neurons; test: 3H-2-deoxyglucose uptake in mHypoE-38 hypothalamic neurons; type: cell-based, mouse
Procedure: The effect of TCAP-1 on glucose uptake in brain cells was examined in immortalized […] hypothalamic cells. Immortalized mHypoE-38 hypothalamic embryonic mouse neurons (gift from Dr. Denise Belsham, University of Toronto) were grown in Dulbecco's Modified Eagle Medium (DMEM) containing 4500 mg/L D-glucose, L-glutamine, and 25 mM HEPES buffer, without sodium pyruvate or phenol red (Gibco, Cat. No. 21063029), supplemented with 5% heat-inactivated fetal bovine serum (FBS), 100 U/ml penicillin and 100 μg/ml streptomycin. Cells were maintained at 60-70% confluency at 37° C. in a humidified CO2 incubator. To passage, cells were washed once in sterile PBS, trypsinized and seeded at a density of 100,000 cells per 3.5 cm plate and allowed to grow for 2-3 days. 24 hours prior to experimentation, medium was changed. mHypoE-38 hypothalamic cells were grown in 6-well tissue culture dishes (Corning Incorporated, Cat. No. 3516) at a seeding density of200 000 cells/9.5 cm^2 well in a 37° C. normoxic incubator. Cultures were grown for 36 hours to 85% confluence prior to experimentation. At day 3 post-plating, cells were washed twice with Locke's buffer (154 mM NaCl, 5.6 mM KCl, 2.3 mM CaCl2, 3.6 mM NaHCO3, 5 mM HEPES) without serum and glucose. The culture was incubated in the Locke's buffer for 1 hour at 37° C. followed by exposure to 100 nM insulin, 100 nM TCAP-1, 100 nM SC-TCAP-1, or saline. KCl (40 mM) and […] (0.5 μCi/ml) were added to culture 5 minutes before termination of treatment exposure. Uptake of ^3H-2-deoxyglucose was stopped immediately after 5 minutes with three washes of ice-cold 0.9% NaCl solution. Parallel experiments with 5 μM of cytochalasin B were performed to ensure that glucose uptake was of transporter-inhibitable transport. The cells were digested with 1 ml of 0.05 N NaOH at 0, 15, 30, 45, 60, 90 and 120 minutes after treatment. Cell lysates were used for determination of radioactivity by a beta liquid scintillation counter. Experiments were repeated three times with 3 wells pear condition per replication. […] hypothalamic cells were cultured as above and treated with 100 nM insulin, 100 nM TCAP-1 or saline, exposed to 5.6 mM or 40 mM KCl and 0.5 μCi/well 3H-2-deoxy glucose, and subsequently lysed with 50 mM NaOH. Radioactivity in cell lysates was counted using a liquid scintillation counter.

Substance	binding to 5 μm sections of mouse gastrocnemius muscle [1]	co-localization with latrophilin-1 immunoreactivity [2]	3HDG uptake in potassium-free media [3]	3H-2-deoxyglucose uptake ([4]; 90 minutes)	3H-2-deoxyglucose uptake ([4]; after 30 minutes)	3H-2-deoxyglucose uptake ([5]; 100 nM, 5.6 mM KCl (low KCl))	3H-2-deoxyglucose uptake ([5]; 100 nM, 40 mM KCl exposure)	3H-2-deoxyglucose uptake value relative to baseline ([5]; 100 nM, 40 mM KCl, 45 minutes)	3HDG uptake in whole cells over time ([5]; Hypo-E38 cells (FIG. 11C-E))	3H-2-deoxyglucose uptake ([5]; cells pretreated with MEK inhibitor (U0126) for 1 hour, 40 mM KCl)	3H-2-deoxyglucose uptake ([5]; non-MEK-inhibited cells, 40 mM KCl)
FITC-TCAP-1: [K8]-TCAP-1 peptide labeled with fluorescein isothiocyanate (FITC) (QQLLGTGKVQGYDGYFVLSVEQYLELSDSANNIHFMRQSEI; ends and bridges not checked; also: FITC label, attachment site not given here)	preferentially binds to the membranes of individual skeletal mouse muscle fibers	strong co-localization	–	–	–	–	–	–	–	–	–
insulin	–	–	decreased insulin-dependent glucose uptake to baseline levels	332.321±87.296%	284.520±47.129%	91.423±5.226%	288.572±24.527%	253±21.38%	uptake in 3HDGlucose within 30 min and remained high until after 60 min	108.069±13.671	162.846±1.813
